In ChEMBL document CHEMBL3991601, “The target landscape of clinical kinase drugs” (Science, 2017):
pKd: −log10 of the molar value. The source made the active and inactive calls. For most assays here, no stated cut-off is given here; in the data, actives have a measured Kd and inactives only a lower limit.

Experiments:
[1] = target: Serine/threonine-protein kinase pim-1 (Homo sapiens, UniProt P11309)
[2] = target: Tyrosine-protein kinase ABL1 (Homo sapiens, UniProt P00519)
[3] = target: T1, Serine/threonine-protein kinase Nek1 (Homo sapiens, UniProt Q96PY6)
T1 sequence (Q96PY6 whole entry): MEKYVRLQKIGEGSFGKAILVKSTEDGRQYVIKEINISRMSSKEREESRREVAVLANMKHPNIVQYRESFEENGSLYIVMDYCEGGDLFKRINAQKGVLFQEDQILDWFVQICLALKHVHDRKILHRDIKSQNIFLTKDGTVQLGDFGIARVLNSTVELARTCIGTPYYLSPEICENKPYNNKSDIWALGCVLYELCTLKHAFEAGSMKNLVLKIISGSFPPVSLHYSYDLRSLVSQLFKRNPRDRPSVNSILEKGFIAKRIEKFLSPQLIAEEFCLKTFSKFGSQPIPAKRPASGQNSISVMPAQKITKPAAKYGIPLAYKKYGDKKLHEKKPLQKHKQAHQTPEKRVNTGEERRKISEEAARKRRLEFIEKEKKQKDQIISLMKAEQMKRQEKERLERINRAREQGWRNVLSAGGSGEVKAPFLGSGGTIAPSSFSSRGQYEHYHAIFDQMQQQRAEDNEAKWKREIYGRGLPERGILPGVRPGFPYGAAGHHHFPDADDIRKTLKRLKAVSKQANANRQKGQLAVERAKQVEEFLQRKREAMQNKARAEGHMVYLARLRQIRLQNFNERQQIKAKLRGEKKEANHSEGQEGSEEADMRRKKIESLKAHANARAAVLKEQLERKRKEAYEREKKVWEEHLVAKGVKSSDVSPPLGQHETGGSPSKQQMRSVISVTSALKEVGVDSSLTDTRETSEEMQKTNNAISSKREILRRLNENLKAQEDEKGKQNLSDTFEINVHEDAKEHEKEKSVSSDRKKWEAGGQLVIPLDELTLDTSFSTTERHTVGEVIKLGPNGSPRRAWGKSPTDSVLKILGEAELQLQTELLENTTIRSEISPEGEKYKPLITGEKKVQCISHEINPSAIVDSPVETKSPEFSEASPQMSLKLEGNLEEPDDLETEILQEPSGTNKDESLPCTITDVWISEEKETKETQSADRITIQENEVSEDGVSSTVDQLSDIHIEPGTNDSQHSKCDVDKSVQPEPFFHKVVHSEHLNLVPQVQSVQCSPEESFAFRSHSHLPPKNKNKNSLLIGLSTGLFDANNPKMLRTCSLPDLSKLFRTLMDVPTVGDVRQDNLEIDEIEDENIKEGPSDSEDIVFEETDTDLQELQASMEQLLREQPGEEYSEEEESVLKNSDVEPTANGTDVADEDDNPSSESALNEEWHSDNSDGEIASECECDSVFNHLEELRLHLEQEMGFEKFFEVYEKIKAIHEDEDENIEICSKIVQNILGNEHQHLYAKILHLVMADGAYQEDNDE

[4] = target: Rho-associated protein kinase 1 (Homo sapiens, UniProt Q13464)
[5] = target: Cyclin-dependent kinase 3 (Homo sapiens, UniProt Q00526)
[6] = target: T2, Interleukin-1 receptor-associated kinase 4 (Homo sapiens, UniProt Q9NWZ3)
T2 sequence (Q9NWZ3 whole entry): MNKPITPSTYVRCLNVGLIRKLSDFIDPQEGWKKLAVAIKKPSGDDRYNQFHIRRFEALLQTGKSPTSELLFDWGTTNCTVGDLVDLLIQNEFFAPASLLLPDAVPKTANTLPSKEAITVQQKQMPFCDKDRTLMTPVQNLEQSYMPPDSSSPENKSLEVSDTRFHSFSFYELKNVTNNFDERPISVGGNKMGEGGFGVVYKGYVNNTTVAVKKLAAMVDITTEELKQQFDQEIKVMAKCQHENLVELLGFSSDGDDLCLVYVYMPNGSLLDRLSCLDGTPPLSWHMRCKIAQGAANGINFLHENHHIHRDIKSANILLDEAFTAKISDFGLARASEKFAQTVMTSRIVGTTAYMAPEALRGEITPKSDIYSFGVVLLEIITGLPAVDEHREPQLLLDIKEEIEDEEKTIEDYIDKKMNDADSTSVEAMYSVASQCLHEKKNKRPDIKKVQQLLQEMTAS

[7] = target: Serine/threonine-protein kinase B-raf (Homo sapiens, UniProt P15056)
[8] = target: T3, Serine/threonine-protein kinase Chk1 (Homo sapiens, UniProt O14757)
T3 sequence (O14757 whole entry): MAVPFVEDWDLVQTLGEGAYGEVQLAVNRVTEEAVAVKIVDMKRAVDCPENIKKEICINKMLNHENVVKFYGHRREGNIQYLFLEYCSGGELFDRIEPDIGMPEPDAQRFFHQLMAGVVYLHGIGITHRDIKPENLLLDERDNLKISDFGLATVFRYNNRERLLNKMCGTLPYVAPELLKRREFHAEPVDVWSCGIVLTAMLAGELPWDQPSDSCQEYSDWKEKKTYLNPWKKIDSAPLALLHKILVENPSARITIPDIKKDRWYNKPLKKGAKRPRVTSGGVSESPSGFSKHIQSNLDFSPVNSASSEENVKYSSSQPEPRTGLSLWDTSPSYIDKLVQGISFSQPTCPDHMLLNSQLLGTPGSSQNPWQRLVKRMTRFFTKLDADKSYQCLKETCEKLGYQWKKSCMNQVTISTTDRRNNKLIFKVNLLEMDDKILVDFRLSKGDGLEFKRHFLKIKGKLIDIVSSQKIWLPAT

Ephrin type-A receptor 4 = Ephrin type-A receptor 4 (Homo sapiens, UniProt P54764)
[9] = target: Tyrosine-protein kinase SYK (Homo sapiens, UniProt P43405)
[10] = target: Platelet-derived growth factor receptor beta (Homo sapiens, UniProt P09619)
Chain of Platelet-derived growth factor receptor beta (P09619 whole entry): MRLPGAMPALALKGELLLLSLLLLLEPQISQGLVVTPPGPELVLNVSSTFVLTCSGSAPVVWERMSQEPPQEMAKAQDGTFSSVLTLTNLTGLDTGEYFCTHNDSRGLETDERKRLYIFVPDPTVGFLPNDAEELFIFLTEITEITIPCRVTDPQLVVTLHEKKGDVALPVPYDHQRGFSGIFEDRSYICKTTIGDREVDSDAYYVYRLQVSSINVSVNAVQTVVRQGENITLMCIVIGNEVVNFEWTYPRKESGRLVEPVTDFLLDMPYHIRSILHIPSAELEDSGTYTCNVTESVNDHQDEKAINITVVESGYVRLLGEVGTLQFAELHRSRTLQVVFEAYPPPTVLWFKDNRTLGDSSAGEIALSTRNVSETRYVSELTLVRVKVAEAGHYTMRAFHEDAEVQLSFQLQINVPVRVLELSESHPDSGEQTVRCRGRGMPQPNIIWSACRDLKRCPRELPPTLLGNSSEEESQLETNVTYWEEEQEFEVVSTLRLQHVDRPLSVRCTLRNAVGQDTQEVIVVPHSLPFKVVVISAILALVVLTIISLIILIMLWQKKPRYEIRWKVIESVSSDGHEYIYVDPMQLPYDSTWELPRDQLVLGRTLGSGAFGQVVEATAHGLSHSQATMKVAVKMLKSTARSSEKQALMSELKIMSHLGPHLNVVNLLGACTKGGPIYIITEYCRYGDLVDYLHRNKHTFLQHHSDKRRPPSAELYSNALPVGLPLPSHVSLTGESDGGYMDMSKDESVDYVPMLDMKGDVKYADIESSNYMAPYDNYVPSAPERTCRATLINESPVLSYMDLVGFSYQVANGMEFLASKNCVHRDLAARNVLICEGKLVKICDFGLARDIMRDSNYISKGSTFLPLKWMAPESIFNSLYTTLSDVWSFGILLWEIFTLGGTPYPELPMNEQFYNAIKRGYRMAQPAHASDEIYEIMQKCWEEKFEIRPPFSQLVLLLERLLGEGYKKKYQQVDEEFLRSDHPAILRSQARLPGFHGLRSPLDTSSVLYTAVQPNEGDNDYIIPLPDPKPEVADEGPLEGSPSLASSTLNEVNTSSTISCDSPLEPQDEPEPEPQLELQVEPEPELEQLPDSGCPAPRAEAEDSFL

Chain of Cyclin-dependent kinase 3 (Q00526 whole entry): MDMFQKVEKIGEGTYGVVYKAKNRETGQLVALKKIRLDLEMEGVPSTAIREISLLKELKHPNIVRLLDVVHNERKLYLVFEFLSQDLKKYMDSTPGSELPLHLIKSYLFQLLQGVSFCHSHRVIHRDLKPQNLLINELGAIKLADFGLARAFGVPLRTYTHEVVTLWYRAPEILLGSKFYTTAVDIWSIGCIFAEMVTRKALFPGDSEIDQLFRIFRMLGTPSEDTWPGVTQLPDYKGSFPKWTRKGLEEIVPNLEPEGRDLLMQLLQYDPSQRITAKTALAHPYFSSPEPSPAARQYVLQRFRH
Chain of Serine/threonine-protein kinase B-raf (P15056 whole entry): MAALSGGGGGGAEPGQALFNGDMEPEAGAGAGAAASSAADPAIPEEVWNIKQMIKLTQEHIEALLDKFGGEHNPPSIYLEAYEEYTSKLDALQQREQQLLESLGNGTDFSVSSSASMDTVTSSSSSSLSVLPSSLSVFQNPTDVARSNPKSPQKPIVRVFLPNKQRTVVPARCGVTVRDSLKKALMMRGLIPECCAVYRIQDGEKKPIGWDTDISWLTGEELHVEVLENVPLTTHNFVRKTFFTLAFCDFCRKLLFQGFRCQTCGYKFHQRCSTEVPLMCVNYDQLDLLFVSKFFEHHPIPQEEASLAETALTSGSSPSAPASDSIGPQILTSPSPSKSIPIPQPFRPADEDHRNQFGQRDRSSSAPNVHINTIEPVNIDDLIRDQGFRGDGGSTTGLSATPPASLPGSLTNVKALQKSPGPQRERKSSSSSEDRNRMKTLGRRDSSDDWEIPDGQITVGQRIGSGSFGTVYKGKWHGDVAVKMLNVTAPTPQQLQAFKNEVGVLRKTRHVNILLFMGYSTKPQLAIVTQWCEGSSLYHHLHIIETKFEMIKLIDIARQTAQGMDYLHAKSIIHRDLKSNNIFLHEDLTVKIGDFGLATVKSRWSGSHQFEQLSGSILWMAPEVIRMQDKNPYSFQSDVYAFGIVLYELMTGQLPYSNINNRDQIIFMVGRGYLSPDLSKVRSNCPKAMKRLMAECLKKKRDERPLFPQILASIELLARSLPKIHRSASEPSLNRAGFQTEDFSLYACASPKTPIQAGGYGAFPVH
Chain of Serine/threonine-protein kinase pim-1 (P11309 whole entry): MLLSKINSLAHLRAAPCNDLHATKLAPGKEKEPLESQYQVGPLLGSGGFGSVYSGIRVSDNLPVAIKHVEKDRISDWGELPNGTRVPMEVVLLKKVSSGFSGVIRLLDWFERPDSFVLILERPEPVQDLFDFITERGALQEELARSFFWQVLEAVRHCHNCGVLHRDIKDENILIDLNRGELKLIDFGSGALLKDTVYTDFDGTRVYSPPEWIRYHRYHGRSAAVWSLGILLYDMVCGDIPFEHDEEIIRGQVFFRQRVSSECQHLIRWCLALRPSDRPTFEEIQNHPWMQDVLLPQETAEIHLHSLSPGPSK
Chain of Tyrosine-protein kinase ABL1 (P00519 whole entry): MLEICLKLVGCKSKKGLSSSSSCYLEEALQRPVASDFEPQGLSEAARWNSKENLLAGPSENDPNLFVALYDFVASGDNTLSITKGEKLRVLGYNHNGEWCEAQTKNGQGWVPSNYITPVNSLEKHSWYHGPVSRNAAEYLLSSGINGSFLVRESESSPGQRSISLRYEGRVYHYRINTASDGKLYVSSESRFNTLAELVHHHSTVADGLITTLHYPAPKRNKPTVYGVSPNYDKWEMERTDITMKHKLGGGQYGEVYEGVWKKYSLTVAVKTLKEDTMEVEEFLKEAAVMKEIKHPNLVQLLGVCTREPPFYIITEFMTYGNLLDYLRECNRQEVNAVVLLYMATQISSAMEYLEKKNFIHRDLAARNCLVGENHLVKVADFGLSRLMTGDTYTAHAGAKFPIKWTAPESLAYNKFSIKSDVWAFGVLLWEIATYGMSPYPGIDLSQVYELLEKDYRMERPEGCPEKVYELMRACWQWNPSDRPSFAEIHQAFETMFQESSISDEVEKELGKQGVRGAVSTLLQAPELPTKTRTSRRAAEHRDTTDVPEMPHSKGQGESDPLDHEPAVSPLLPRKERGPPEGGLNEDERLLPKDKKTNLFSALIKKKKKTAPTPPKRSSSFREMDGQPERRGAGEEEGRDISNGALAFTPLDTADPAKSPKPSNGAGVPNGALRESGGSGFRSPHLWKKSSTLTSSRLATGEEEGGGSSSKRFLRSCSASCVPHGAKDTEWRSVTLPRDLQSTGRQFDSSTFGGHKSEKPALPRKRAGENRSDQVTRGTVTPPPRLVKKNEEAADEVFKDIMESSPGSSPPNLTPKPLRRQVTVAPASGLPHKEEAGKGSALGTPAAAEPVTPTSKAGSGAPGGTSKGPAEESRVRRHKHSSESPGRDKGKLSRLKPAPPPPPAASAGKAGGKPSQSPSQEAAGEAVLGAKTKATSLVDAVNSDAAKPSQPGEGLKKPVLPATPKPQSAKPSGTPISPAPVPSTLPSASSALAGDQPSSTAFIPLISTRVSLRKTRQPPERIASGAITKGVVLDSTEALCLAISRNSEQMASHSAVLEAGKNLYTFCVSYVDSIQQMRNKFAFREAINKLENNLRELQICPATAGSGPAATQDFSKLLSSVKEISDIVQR
Chain of Ephrin type-A receptor 4 (P54764 whole entry): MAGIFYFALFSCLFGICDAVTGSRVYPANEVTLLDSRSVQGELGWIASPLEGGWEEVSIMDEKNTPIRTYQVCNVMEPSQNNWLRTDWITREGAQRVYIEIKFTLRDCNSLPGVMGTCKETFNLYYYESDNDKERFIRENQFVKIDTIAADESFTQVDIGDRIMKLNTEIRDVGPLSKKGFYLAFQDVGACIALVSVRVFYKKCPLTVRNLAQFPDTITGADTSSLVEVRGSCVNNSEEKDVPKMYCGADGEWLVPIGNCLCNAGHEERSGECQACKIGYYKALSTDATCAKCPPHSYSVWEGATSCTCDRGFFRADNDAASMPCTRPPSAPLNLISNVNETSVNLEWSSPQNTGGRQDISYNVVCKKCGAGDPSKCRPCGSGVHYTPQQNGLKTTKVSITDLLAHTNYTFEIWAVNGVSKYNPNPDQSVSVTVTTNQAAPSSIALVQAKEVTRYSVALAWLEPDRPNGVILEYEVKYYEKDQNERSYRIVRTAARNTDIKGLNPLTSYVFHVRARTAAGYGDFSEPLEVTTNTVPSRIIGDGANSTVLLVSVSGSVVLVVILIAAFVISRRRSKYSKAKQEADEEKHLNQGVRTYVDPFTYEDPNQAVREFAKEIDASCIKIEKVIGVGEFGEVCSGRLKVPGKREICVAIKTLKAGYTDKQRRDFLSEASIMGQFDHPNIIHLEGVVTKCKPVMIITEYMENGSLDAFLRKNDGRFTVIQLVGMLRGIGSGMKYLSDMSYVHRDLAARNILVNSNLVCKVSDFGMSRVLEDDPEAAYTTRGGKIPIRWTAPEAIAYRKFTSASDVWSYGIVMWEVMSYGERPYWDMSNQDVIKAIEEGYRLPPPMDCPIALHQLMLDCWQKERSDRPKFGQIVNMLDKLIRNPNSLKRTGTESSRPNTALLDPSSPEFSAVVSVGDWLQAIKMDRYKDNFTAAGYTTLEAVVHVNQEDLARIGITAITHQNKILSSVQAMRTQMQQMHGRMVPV

Compound	Kd [1]	Kd [2]	Kd [3]	Kd [4]	Kd [5]	Kd [6]	Kd [7]	Kd [8]	Kd (Ephrin type-A receptor 4)	Kd [9]	Kd [10]	pKd [7]
Cc1cc(-c2cc(O)ccc2Cl)cc2nnc(Nc3ccc(OCCN4CCCC4)cc3)nc12	> 30 µM (inactive)	0.002 µM (active)	> 30 µM (inactive)	> 30 µM (inactive)	> 30 µM (inactive)	> 30 µM (inactive)	0.003 µM (active)	> 30 µM (inactive)	0.002 µM (active)	> 30 µM (inactive)	> 30 µM (inactive)	
COc1cc(N2CCC(N3CCN(C)CC3)CC2)ccc1Nc1ncnc(Nc2ccccc2S(=O)(=O)C(C)C)n1 [ASP-3026]	> 30 µM (inactive)	5.26 µM (active)	> 30 µM (inactive)	> 30 µM (inactive)	> 30 µM (inactive)	> 30 µM (inactive)	> 30 µM (inactive)	> 30 µM (inactive)	> 30 µM (inactive)	> 30 µM (inactive)	> 30 µM (inactive)	
CNS(=O)(=O)Nc1nccc(Cc2c(C)c3ccc(Oc4ncccn4)cc3oc2=O)c1F [AVUTOMETINIB]	> 30 µM (inactive)	> 30 µM (inactive)	> 30 µM (inactive)	> 30 µM (inactive)	> 30 µM (inactive)	> 30 µM (inactive)		> 30 µM (inactive)	> 30 µM (inactive)	> 30 µM (inactive)	> 30 µM (inactive)	8.15
Cc1ccc(S(=O)(=O)Nc2nc3ccccc3nc2Nc2ccc3nsnc3c2)cc1	> 30 µM (inactive)	> 30 µM (inactive)	> 30 µM (inactive)	> 30 µM (inactive)	> 30 µM (inactive)	> 30 µM (inactive)	> 30 µM (inactive)	> 30 µM (inactive)	> 30 µM (inactive)	> 30 µM (inactive)	> 30 µM (inactive)	
C=CC(=O)N1CCC(Oc2cc3c(Nc4ccc(Cl)c(Cl)c4F)ncnc3cc2OC)CC1 [POZIOTINIB]	> 30 µM (inactive)	> 30 µM (inactive)	> 30 µM (inactive)	> 30 µM (inactive)	> 30 µM (inactive)	> 30 µM (inactive)	> 30 µM (inactive)	> 30 µM (inactive)	7.06 µM (active)	> 30 µM (inactive)	> 30 µM (inactive)	

Further lines, results first:

Kd [1]	Kd [2]	Kd [3]	Kd [4]	Kd [5]	Kd [6]	Kd [7]	Kd [8]	Kd (Ephrin type-A receptor 4)	Kd [9]	Kd [10]	pKd [7]	Compound
> 30 µM (inactive)	> 30 µM (inactive)	> 30 µM (inactive)	> 30 µM (inactive)	> 30 µM (inactive)	> 30 µM (inactive)	> 30 µM (inactive)	> 30 µM (inactive)	> 30 µM (inactive)	> 30 µM (inactive)	> 30 µM (inactive)		Cc1cc([C@@H](C)Nc2ccccc2C(=O)O)c2nc(N3CCOCC3)cc(=O)n2c1 [AZD-6482]
> 30 µM (inactive)	> 30 µM (inactive)	> 30 µM (inactive)	0.482 µM (active)	> 30 µM (inactive)	> 30 µM (inactive)	> 30 µM (inactive)	> 30 µM (inactive)	> 30 µM (inactive)	> 30 µM (inactive)	> 30 µM (inactive)		CCS(=O)(=O)N1CC(CC#N)(n2cc(-c3ncnc4[nH]ccc34)cn2)C1 [BARICITINIB]
> 30 µM (inactive)	> 30 µM (inactive)	> 30 µM (inactive)	> 30 µM (inactive)	> 30 µM (inactive)	> 30 µM (inactive)	> 30 µM (inactive)	> 30 µM (inactive)	> 30 µM (inactive)	> 30 µM (inactive)	> 30 µM (inactive)		Cc1c(F)cc(C(=O)NC2CC2)cc1-c1ccc(C(=O)NCC(C)(C)C)cn1 [LOSMAPIMOD]
> 30 µM (inactive)	> 30 µM (inactive)	> 30 µM (inactive)	> 30 µM (inactive)	> 30 µM (inactive)	> 30 µM (inactive)	> 30 µM (inactive)	> 30 µM (inactive)	> 30 µM (inactive)	> 30 µM (inactive)	> 30 µM (inactive)		O=c1sn(-c2cccc3ccccc23)c(=O)n1Cc1ccccc1 [TIDEGLUSIB]
> 30 µM (inactive)	> 30 µM (inactive)	> 30 µM (inactive)	> 30 µM (inactive)	> 30 µM (inactive)	> 30 µM (inactive)	> 30 µM (inactive)	> 30 µM (inactive)	> 30 µM (inactive)	> 30 µM (inactive)	> 30 µM (inactive)		C[C@@H](Nc1cc(F)cc(F)c1)c1cc(C(=O)N(C)C)cc2c(=O)cc(N3CCOCC3)oc12 [AZD-8186]
